One assay relates to pT308 AKT. Nature of the assay: Immunoblot of survival signaling. Conditions: MDA-MB-231 cells, 10 ppm. It is filed as cell-based, human. Here is the method:
Protein concentration was determined using the BCA Protein Assay (Pierce), and 20-50 μg of lysate were separated in a 4-12% SDS-PAGE gel. After transfer, membranes were blocked for 15-30 min at room temperature in 5% BSA (Sigma) in Tris-buffered saline containing 0.1% Tween-20. Primary antibody was incubated for either 1.5 hours at room temperature or overnight at 4° C. Secondary antibody was incubated for 30-45 min at room temperature, and proteins were visualized with West Pico Stable (Pierce). All antibodies were used at 1:1000 dilution unless otherwise stated. pT308AKT, AKT, pT180/Y182, pT183/Y185 P38MAPK, pP38MAPK, pT202/Y204 pERK1/2, ERK1, pT183/Y185, pJNK1/2, JNK1, pT71ATF2, pT581MSK1, pT14 Cdc2, Cdc2, pT68Chk2 (cell signaling), pT334MAPKAPK, pS82HSP27 (Cell Signaling Technology, Danvers, Mass.), α-tubulin (Biomarkers, 1:50,000), Cyclin B1 (Santa Cruz Biotechnologies) and horseradish peroxidase-conjugated anti-rabbit IgG and anti-mouse IgG (1:5,000, Pierce).
The PI3K/AKT pathway regulates a wide range of cellular functions including survival and proliferation. […] PDK1 phosphorylates AKT on T308, which is itself activated by phosphorylation on S241. Levels of pS241 PDK1 were reduced upon strigolactone treatment and correlated closely with reduced AKT phosphorylation observed in strigolactone treated cells (FIG. 14).
A general note: In western blotting, separated proteins are transferred to a membrane and probed.

A further assay concerns MDA-MB-231. Description: XTT viability after timed exposure and strigolactone removal. The class given is cell-based, human. Conditions: 5 and 10 ppm, XTT at 24 hours. Here is the method:
As further detailed herein below in the Experimental section, strigolactones and strigolactone analogs inhibit growth through a G2-phase arrest and cause apoptosis at higher concentrations wherein the GR-24 treatment causes an increase in the percentage of MCF-7 and MDA-MB-231 cells in G2-phase. Cells were treated with strigolactone analogs to determine whether or not they alter cell cycle progression in the same way. Dose dependant increases in the percentage of cells in G2 phase were observed. […] After a total of 24 hours, an XTT assay was carried out.

A further assay relates to GRIM REAPER (GRI). Nature of the assay: Gene transcription level by quantitative PCR: GRI. It is filed as in vivo, Arabidopsis thaliana. Here is the method: Seeds of homozygous lines of Arabidopsis thaliana wild type (WT; Columbia; Col-0) and max2-1 mutant (http://abrc.osu.edu/) were surface-sterilized and germinated on 1/2 Murashige and Skoog (MS) plates supplemented with 1% sucrose and solidified with 0.7% agar. Plates were incubated vertically in the dark at 4° C. for two days to synchronize germination. Three days after germination, seedlings were gently transferred using forceps to 1/2 MS plates containing various concentrations of GR-24 as a mixture of four diastereomers: (±)-GR-24 and (±)-2'-epi-GR-24. The root tip of the transferred seedling was marked on the plates. The plates remained unsealed to prevent accumulation of gases (e.g., ethylene), and were positioned in an upright 45° position, and incubated at 22° C. with a light intensity of […] m-2 s-1 provided by white fluorescent tubes and under a photoperiod of 16 hours exposure to light/8 hours in the dark for 6-12 days. GR-24 treatments were conducted at concentrations ranging from 2.7×10^-6 to 13.5×10^-6 M. […] GR-24, ST-357 and ST-362 were initially dissolved in acetone to give a 4.5 mM, 10 μM and 10 μM solutions, respectively, which were then further diluted with double-distilled sterile water (DDW). […] In each of the experiments, non-treated roots were compared to the respective acetone control. Where no difference was observed between the various controls, non-treated roots are shown. Where differences were recorded between non-treated and acetone controls, the comparison was made between GR-24, ST-357 and ST-362-treated and acetone-treated roots. RNA was extracted from seedlings grown and treated as described in Example 1. Quantitative PCR was performed by amplifying fragments of genes of interest (Tables 6 & 7). Arabidopsis 15S ribosomal RNA (GenBank accession no. AT1G04270.1) served as the reference gene for the amount of RNA, and was amplified using specific primers (forward) [NT] and (reverse) [NT]. The experiment was performed in 5-6 biological replicates; each replicate included 8 plants, on which 3 technical repeats were performed. Means and standard error were determined from all biological replicates. Primers were designed using PrimerQuest software (Integrated DNA Technologies). RNA was extracted using Trizol (Invitrogen, Carlsbad, Calif., USA) using the manufacturer's protocol. 1 μg RNA was reverse-transcribed in a total volume of 20 μl using the Superscript First strand cDNA synthesis kit (Invitrogen). […] The expression of each target gene was normalized to the expression of GAPDH RNA and is presented as the ratio of the target gene to GAPDH RNA, expressed as 2-ΔCt, where Ct is the threshold cycle and ΔCt=[NT] […]

Assay [1] deals with MDA-MB-231 breast cancer cells. Nature of the assay: Xenograft tumor model. Conditions: SCID mice, 10 mg/kg iv twice a week, 4 treatments; for Mean tumor volume: control 24.2±5.57; for Tumor growth: p<0.0015. The class given is in vivo. The method, then:
To establish subcutaneous tumors, actively growing MDA-MB-231 breast cancer cells were harvested and 1.5×10^6 cells in 100 μl PBS were injected into the mammary fat pads of mice (n=15). The lesions were allowed to grow until their average sizes were approximately 4.5 mm×4.5 mm (about 3 weeks). The mice were then randomized into 3 groups for various treatments including vehicle control, and two strigolactone analogs: ST-362 and ST-357. Treatment started at day 1, 10 ppm (10 mg/Kg) twice a week for a total of 4 treatments. ST-362 and ST-357 were administered intravenously (iv). Body weight and tumor measurements were recorded twice weekly. Tumor cross-sectional area was calculated by multiplying the length×width and tumor volume was calculated by cubing the mean value of length and width. Results are summarized and plotted.
Data are expressed as mean±SD. Statistical significance was assessed by one-way ANOVA and Games-Howell Post Hoc test. A value of P<0.05 was considered significant and represents significance compared with untreated controls, unless indicated otherwise. Data was analyzed by Graphpad PRISMS and SPSS.

Entries after “also recorded” stand apart in the source; their conditions may differ.

As for `CC1=CC(O/C=C2\Cc3c(n(C)c4ccccc34)C2=O)OC1=O` (racemic) [EG-5, (±) (2E)-4-methyl-2-(4-methyl-5-oxo-2,5-dihydrofuran-2-yloxymethylene)-1,4-dihydro-2H-cyclopenta[b]indol-3-one], the “pT308 AKT levels / inhibition of AKT phosphorylation” value in the assay on pT308 AKT was “slight delay in the inhibition of AKT phosphorylation, occurring between 8 and 24 hours”.

As for `CC1=CC(O/C=C2\Cc3c(n(C)c4cc(-c5cccs5)ccc34)C2=O)OC1=O` (racemic) [MEB-55, (±) 2E-4-methyl-2-(4-methyl-5-oxo-2,5-dihydrofuran-2-yloxymethylene)-6-thiophen-2-yl-1,4-dihydro-2H-cyclopenta[b]indol-3-one], in the assay on pT308 AKT, the “pT308 AKT levels / inhibition of AKT phosphorylation” value is “decreased dramatically between 4 and 8 hours”. The Cell viability result in the assay on MDA-MB-231 (2 hours exposure) is reported as “No significant changes; also recorded: No changes in cell viability”; in the assay with MDA-MB-231 (4 hours exposure, p<0.01) it was “significant decrease in viability”.

Turning to `CC1=C[C@H](O/C=C2/C(=O)O[C@@H]3c4ccccc4C[C@H]23)OC1=O` (relative stereo) [GR-24, (3aR*,8bS*,E)-3-(((R*)-4-methyl-5-oxo-2,5-dihydrofuran-2-yloxy)methylene)-3,3a,4,8b-tetrahydro-2H-indeno[1,2-b]furan-2-one], in the assay with GRIM REAPER (GRI) (3 μM), the “GRI gene expression induction” value is reported as 2.3 fold. The “GRI transcription level versus controls” value with GRIM REAPER (GRI) (WT seedlings, 3 μM) is recorded as 33.008 ± 7.121; in the assay on GRIM REAPER (GRI) (max2-1 seedlings, 3 μM), 0.214 ± 0.193. Moreover, the GRI gene transcription result in the assay with GRIM REAPER (GRI) (max2-1 mutants) was “not induced”.

As for `CC1=CC(O/C=C2/C(=O)c3c(c4cc(-c5cccs5)ccc4n3C)C2C)OC1=O` (centres unmarked) [ST-357, (2E)-1,4-dimethyl-2-((4-methyl-5-oxo-2,5-dihydrofuran-2-yloxy)methylene)-7-(thiophen-2-yl)-1,2-dihydrocyclopenta[b]indol-3(4H)-one], in assay [1], the Mean tumor volume is reported as 15.9±2.61 mm^3 and the Tumor growth result was “effective in inhibiting tumor growth”.

Take `CC1=CC(O/C=C2/C(=O)c3c(c4cc(-c5scc6c5OCCO6)ccc4n3C)C2C)OC1=O` (centres unmarked) [ST-362, (2E)-2-[(2,5-dihydro-4-methyl-5-oxofuran-2-yloxy)methylene]-1,2-dihydro-7-(2,3-dihydrothieno[3,4-b][1,4]dioxin-7-yl)-1,4-dimethyl-cyclopenta[b]indole-3-(4H)-one]: the Cell viability entry in the assay on MDA-MB-231 (2 hours exposure) is “No significant changes; also recorded: No changes in cell viability”. In addition, the Cell viability entry in the assay with MDA-MB-231 (4 hours exposure, p<0.01) is reported as “significant decrease in viability”. For the same molecule, in assay [1], the Mean tumor volume came to 17.7±4.28 mm^3 and the Tumor growth result is recorded as “effective in inhibiting tumor growth”.

The values are drawn from patent US10208007B2, “Use of strigolactones and strigolactone analogs for treating proliferative conditions” (The State of Israel, Ministry of Agriculture & Rural …, priority 2011, dated 2019).
